Measured values taken from paper PMC12128149, “Molecular Hybrids of Quinoline and Sulfonamide: Design, Synthesis and in Vitro Anticancer Studies” (ChemistryOpen, 2024).
Counter-ions that a name gives are not always drawn.

Columns and labels:
Format in all cases: cell-based
Jurkat = assay: MTS cytotoxicity testing, Jurkat cells; settings: Homo sapiens, ITK high cells
Method: (§1) Cell lines: The cells were sourced from either the DSMZ (Braunschweig, Germany) or the ATCC (Middlesex, UK). They were maintained in the recommended growth medium, supplemented with 10 % fetal calf serum, antibiotics (100 U/mL penicillin and […]), 2 mM glutamine, 1 mM NaHCO3, 1 mM sodium pyruvate, and 20 mM HEPES. The cells were incubated at 37 °C in a humidified atmosphere with 5 % CO2. Cell lines were routinely verified and checked for mycoplasma contamination every two weeks to once a month.
(§2) MTS cytotoxicity testing: An MTS assay method was developed in our laboratory for routine drug screening. This technique was used to assess the cytotoxicity of compounds, and the IC50 values were determined as previously described.[27]

RAMOS = assay: MTS cytotoxicity testing, RAMOS cells; settings: Homo sapiens, BTK high cells
Method: as §1, §2

HCT116 = assay: MTS cytotoxicity testing, HCT116 cells; settings: Homo sapiens, HCT-116; ITK/BTK null cells
Method: as §1, §2

MOLT‐4 = assay: MTS cytotoxicity testing, MOLT‐4 cells; settings: Homo sapiens, ITK high cells
Method: as §1, §2

A549 = assay: MTS cytotoxicity testing, A549 cells; settings: Homo sapiens, ITK/BTK null cells
Method: as §1, §2

U2OS = assay: MTS cytotoxicity testing, U2OS cells; settings: Homo sapiens, ITK/BTK null cells
Method: as §1, §2

[1] = MTS cytotoxicity testing, MRC‐5 non‐cancer cells; settings: human
Method: as §1, §2

[2] = MTS cytotoxicity testing, BJ non‐cancer cells; settings: human
Method: as §1, §2

K562 = assay: MTS cytotoxicity testing, K562 cells; settings: Homo sapiens, BTK high cells
Method: as §1, §2

CCRF‐CEM = assay: MTS cytotoxicity testing, CCRF‐CEM cells; settings: Homo sapiens, ITK high cells
Method: as §1, §2

Row | SMILES | IC50 (Jurkat) [µM] | IC50 (RAMOS) [µM] | IC50 (HCT116) [µM] | IC50 (MOLT‐4) [µM] | IC50 (A549) [µM] | IC50 (U2OS) [µM] | IC50 [1] [µM] | IC50 [2] [µM] | IC50 (K562) [µM] | IC50 (CCRF‐CEM) [µM]
1 | O=S(=O)(c1cc(-c2ccc3nc[nH]c3c2)cc2cccnc12)N1CCCCC1 [9p, 6‐(1H‐benzo[d]imidazol‐6‐yl)‐8‐(piperidin‐1‐ylsulfonyl)quinoline hydrochloride] | 21.2 ± 3.49 | > 50 | > 50 | > 50 | > 50 | > 50 | > 50 | > 50 | > 50 | 13.2 ± 1.25
2 | COc1cc(-c2cc(S(=O)(=O)N3CCCCC3)c3ncccc3c2)cc(Cl)c1O [9h, 2‐chloro‐6‐methoxy‐4‐(8‐(piperidin‐1‐ylsulfonyl)quinolin‐6‐yl)phenol] | > 50 | > 50 | > 50 | > 50 | > 50 | > 50 | > 50 | > 50 | > 50 | > 50
3 | O=S(=O)(c1cc(-c2ccc(O)c(F)c2)cc2cccnc12)N1CCCCC1 [9f, 2‐fluoro‐4‐(8‐(piperidin‐1‐ylsulfonyl)quinolin‐6‐yl)phenol] | 13 ± 6.43 | 9.69 ± 2.41 | > 50 | > 50 | > 50 | > 50 | > 50 | > 50 | 9.69 ± 2.41 | 17.1 ± 4.64
4 | O=S(=O)(c1cc(-c2ccnc(F)c2)cc2cccnc12)N1CCCCC1 [9n, 6‐(2‐fluoropyridin‐4‐yl)‐8‐(piperidin‐1‐ylsulfonyl)quinoline] | > 50 | 2.76 ± 0.79 | > 50 | > 50 | > 50 | > 50 | > 50 | > 50 | > 50 | 19.4 ± 0.78
5 | Nc1cccc(-c2cc(S(=O)(=O)N3CCCCC3)c3ncccc3c2)c1 [9j, 3‐(8‐(piperidin‐1‐ylsulfonyl)quinolin‐6‐yl)aniline hydrochloride] | > 50 | > 50 | > 50 | 5.57 ± 7.56 | > 50 | > 50 | > 50 | > 50 | > 50 | > 50
6 | O=S(=O)(c1cc(-c2cccc(Cl)c2)cc2cccnc12)N1CCCCC1 [9b, 6‐(3‐chlorophenyl)‐8‐(piperidin‐1‐ylsulfonyl)quinoline] | > 50 | > 50 | > 50 | > 50 | > 50 | > 50 | > 50 | > 50 | > 50 | > 50
7 | N#Cc1cccc(-c2cc(S(=O)(=O)N3CCCCC3)c3ncccc3c2)c1 [9k, 3‐(8‐(piperidin‐1‐ylsulfonyl)quinolin‐6‐yl)benzonitrile] | > 50 | > 50 | > 50 | > 50 | > 50 | > 50 | > 50 | > 50 | > 50 | > 50
8 | O=S(=O)(c1cc(-c2cccc(OC(F)(F)F)c2)cc2cccnc12)N1CCCCC1 [9l, 8‐(piperidin‐1‐ylsulfonyl)‐6‐(3‐(trifluoromethoxy)phenyl)quinolone] | 12.1 ± 6.43 | > 50 | > 50 | > 50 | > 50 | > 50 | > 50 | > 50 | > 50 | > 50
9 | O=S(=O)(c1cc(-c2ccc(O)cc2)cc2cccnc12)N1CCCCC1 [9e, 4‐(8‐(piperidin‐1‐ylsulfonyl)quinolin‐6‐yl)phenol] | 7.43 ± 7.4 | 5.47 ± 1.71 | > 50 | > 50 | > 50 | > 50 | > 50 | > 50 | 5.47 ± 1.71 | 28.6 ± 7.64
10 | O=S(=O)(c1cc(-c2ccccc2Br)cc2cccnc12)N1CCCCC1 [9d, 6‐(2‐bromophenyl)‐8‐(piperidin‐1‐ylsulfonyl)quinoline] | 13.5 ± 6.25 | 12.7 ± 3.71 | > 50 | > 50 | > 50 | > 50 | > 50 | > 50 | > 50 | > 50
11 | O=S(=O)(c1cc(-c2cc(Cl)c(O)c(Cl)c2)cc2cccnc12)N1CCCCC1 [9g, 2,6‐dichloro‐4‐(8‐(piperidin‐1‐ylsulfonyl)quinolin‐6‐yl)phenol] | > 50 | > 50 | > 50 | > 50 | > 50 | > 50 | > 50 | > 50 | > 50 | > 50
12 | O=S(=O)(c1cc(-c2ccccc2)cc2cccnc12)N1CCCCC1 [9a, 6‐phenyl‐8‐(piperidin‐1‐ylsulfonyl)quinoline] | > 50 | > 50 | > 50 | > 50 | > 50 | > 50 | > 50 | > 50 | > 50 | > 50
13 | O=S(=O)(c1cc(-c2ccccc2F)cc2cccnc12)N1CCCCC1 [9c, 6‐(2‐fluorophenyl)‐8‐(piperidin‐1‐ylsulfonyl)quinoline] | 12.7 ± 5.45 | > 50 | > 50 | > 50 | > 50 | > 50 | > 50 | > 50 | > 50 | > 50
14 | COc1cc(-c2cc(S(=O)(=O)N3CCCCC3)c3ncccc3c2)ccn1 [9o, 6‐(2‐methoxypyridin‐4‐yl)‐8‐(piperidin‐1‐ylsulfonyl)quinoline] | 11.4 ± 3.49 | 6.76 ± 0.79 | > 50 | > 50 | > 50 | > 50 | > 50 | > 50 | > 50 | 15.3 ± 2.25
15 | O=S(=O)(c1cc(-c2ccc(C(F)(F)F)cc2)cc2cccnc12)N1CCCCC1 [9m, 8‐(piperidin‐1‐ylsulfonyl)‐6‐(4‐(trifluoromethyl)phenyl)quinoline] | 11.3 ± 1.13 | 8.11 ± 1.29 | > 50 | > 50 | > 50 | > 50 | > 50 | > 50 | > 50 | > 50
16 | COc1cccc(-c2cc(S(=O)(=O)N3CCCCC3)c3ncccc3c2)c1 [9i, 6‐(3‐methoxyphenyl)‐8‐(piperidin‐1‐ylsulfonyl)quinoline] | 8.43 ± 6.43 | > 50 | > 50 | > 50 | > 50 | > 50 | > 50 | > 50 | > 50 | 38.6 ± 4.64
